Experimental data reported in PubChem BioAssay (NCI).
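Test compounds were applied to cells in 96-well plates for 48 hours at 5 doses. TGI: total growth inhibition.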

Key:
Experiment in all cases: growth of human tumour cells (NCI), 48 h
[1] = tested on: T-47D breast
[2] = tested on: HL-60(TB) leukemia
[3] = tested on: SW-620 colon
[4] = tested on: KM12 colon
[5] = tested on: EKVX NSCLC
[6] = tested on: HS 578T breast
[7] = tested on: SNB-19 CNS
[8] = tested on: NCI-H460 lung
[9] = tested on: K-562 leukemia
[10] = tested on: MALME-3M melanoma
[11] = tested on: UO-31 renal
[12] = tested on: MOLT-4 leukemia
[13] = tested on: OVCAR-4 ovarian
[14] = tested on: 786-0 renal
[15] = tested on: OVCAR-3 ovarian
[16] = tested on: HCT-15 colon
[17] = tested on: A498 renal
[18] = tested on: COLO 205 colon
[19] = tested on: SK-OV-3 ovarian
[20] = tested on: SNB-75 CNS
[21] = tested on: SK-MEL-2 melanoma
[22] = tested on: TK-10 renal
[23] = tested on: MCF7 breast
[24] = tested on: U251 CNS
[25] = tested on: ACHN renal
[26] = tested on: HOP-62 NSCLC
[27] = tested on: PC-3 prostate
[28] = tested on: A549 NSCLC
[29] = tested on: RXF 393 renal
[30] = tested on: CAKI-1 renal
[31] = tested on: HOP-92 NSCLC
[32] = tested on: SF-268 CNS
[33] = tested on: SF-539 CNS
[34] = tested on: DU-145 prostate
[35] = tested on: SR leukemia
[36] = tested on: UACC-62 melanoma
[37] = tested on: NCI/ADR-RES ovarian
[38] = tested on: NCI-H226 lung
[39] = tested on: IGROV1 ovarian
[40] = tested on: RPMI-8226 leukemia
[41] = tested on: CCRF-CEM leukemia
[42] = tested on: SK-MEL-5 melanoma
[43] = tested on: MDA-MB-435
[44] = tested on: SF-295 CNS
[45] = tested on: MDA-MB-231 breast
[46] = tested on: OVCAR-8 ovarian
[47] = tested on: MDA-N
[48] = tested on: NCI-H23 lung
[49] = tested on: HCT-116 colon
[50] = tested on: UACC-257 melanoma
[51] = tested on: HCC-2998 colon
[52] = tested on: BT-549 breast
[53] = tested on: SK-MEL-28 melanoma
[54] = tested on: NCI-H522 lung
[55] = tested on: M14 melanoma
[56] = tested on: HT29 colon
[57] = tested on: OVCAR-5 ovarian
[58] = tested on: SN12C renal
[59] = tested on: LOX IMVI melanoma

Compound: Cc1[nH]n(-c2ncc(C(=O)O)c(=O)[nH]2)c(=O)c1CCO
- TGI [1]: > 100 µM
- TGI [2]: > 100 µM
- TGI [3]: > 100 µM
- TGI [4]: > 100 µM
- TGI [5]: > 100 µM
- TGI [6]: > 100 µM
- TGI [7]: > 100 µM
- TGI [8]: > 100 µM
- TGI [9]: > 100 µM
- TGI [10]: > 100 µM
- TGI [11]: > 100 µM
- TGI [12]: > 100 µM
- TGI [13]: > 100 µM
- TGI [14]: > 100 µM
- TGI [15]: > 100 µM
- TGI [16]: > 100 µM
- TGI [17]: > 100 µM
- TGI [18]: > 100 µM
- TGI [19]: > 100 µM
- TGI [20]: > 100 µM
- TGI [21]: > 100 µM
- TGI [22]: > 100 µM
- TGI [23]: > 100 µM
- TGI [24]: > 100 µM
- TGI [25]: > 100 µM
- TGI [26]: > 100 µM
- TGI [27]: > 100 µM
- TGI [28]: > 100 µM
- TGI [29]: > 100 µM
- TGI [30]: > 100 µM
- TGI [31]: > 100 µM
- TGI [32]: > 100 µM
- TGI [33]: > 100 µM
- TGI [34]: > 100 µM
- TGI [35]: > 100 µM
- TGI [36]: > 100 µM
- TGI [37]: > 100 µM
- TGI [38]: > 100 µM
- TGI [39]: > 100 µM
- TGI [40]: > 100 µM
- TGI [41]: > 100 µM
- TGI [42]: > 100 µM
- TGI [43]: > 100 µM
- TGI [44]: > 100 µM
- TGI [45]: > 100 µM
- TGI [46]: > 100 µM
- TGI [47]: > 100 µM
- TGI [48]: > 100 µM
- TGI [49]: > 100 µM
- TGI [50]: > 100 µM
- TGI [51]: > 100 µM
- TGI [52]: > 100 µM
- TGI [53]: > 100 µM
- TGI [54]: > 100 µM
- TGI [55]: > 100 µM
- TGI [56]: > 100 µM
- TGI [57]: > 100 µM
- TGI [58]: > 100 µM
- TGI [59]: > 100 µM

Compound: C=C(C(=O)OC)N1C(=O)CC(C)C1=O (configuration not stated)
- TGI [1]: 33.1 µM
- TGI [2]: 3.78 µM
- TGI [3]: 25.5 µM
- TGI [4]: 43.8 µM
- TGI [5]: 29.9 µM
- TGI [6]: 71.2 µM
- TGI [7]: 58.8 µM
- TGI [8]: 35.1 µM
- TGI [9]: 12.8 µM
- TGI [10]: 5 µM
- TGI [11]: 26.1 µM
- TGI [12]: 10.7 µM
- TGI [13]: 37.4 µM
- TGI [14]: 23.5 µM
- TGI [15]: 22.4 µM
- TGI [16]: 23.6 µM
- TGI [17]: 36.8 µM
- TGI [18]: 14.3 µM
- TGI [19]: 98.9 µM
- TGI [20]: 36.2 µM
- TGI [21]: 33.9 µM
- TGI [22]: 17.7 µM
- TGI [23]: 30.5 µM
- TGI [24]: 35 µM
- TGI [25]: 7.51 µM
- TGI [26]: 35.6 µM
- TGI [27]: 30.4 µM
- TGI [28]: 44.2 µM
- TGI [29]: 26.1 µM
- TGI [30]: 4.38 µM
- TGI [31]: 3.98 µM
- TGI [32]: 36.4 µM
- TGI [33]: 36 µM
- TGI [34]: 29.8 µM
- TGI [35]: 6.9 µM
- TGI [36]: 29.6 µM
- TGI [37]: 36 µM
- TGI [38]: 70.3 µM
- TGI [39]: 31.5 µM
- TGI [40]: 12.7 µM
- TGI [41]: 4.62 µM
- TGI [42]: 32.7 µM
- TGI [43]: 37.2 µM
- TGI [44]: > 72 µM
- TGI [45]: 34.1 µM
- TGI [46]: 43.1 µM
- TGI [47]: 28.9 µM
- TGI [48]: 33.5 µM
- TGI [49]: 19.5 µM
- TGI [50]: 25.8 µM
- TGI [51]: 31.4 µM
- TGI [52]: 30.9 µM
- TGI [53]: 23.1 µM
- TGI [54]: 5.05 µM
- TGI [55]: 29.6 µM
- TGI [56]: 25.2 µM
- TGI [57]: 29.8 µM
- TGI [58]: 31.1 µM
- TGI [59]: 19.1 µM

Compound: Cc1cc(N(CCC#N)CCC#N)ccc1/C=N/NC(=O)c1ccccc1
- TGI [1]: > 100 µM
- TGI [2]: > 27.2 µM
- TGI [3]: > 100 µM
- TGI [4]: > 100 µM
- TGI [5]: > 100 µM
- TGI [6]: > 56.5 µM
- TGI [7]: > 100 µM
- TGI [8]: > 100 µM
- TGI [9]: > 100 µM
- TGI [10]: > 100 µM
- TGI [11]: > 100 µM
- TGI [12]: > 100 µM
- TGI [13]: > 100 µM
- TGI [14]: > 100 µM
- TGI [15]: > 84 µM
- TGI [16]: > 100 µM
- TGI [17]: 65.4 µM
- TGI [18]: > 100 µM
- TGI [19]: > 100 µM
- TGI [20]: > 100 µM
- TGI [21]: > 100 µM
- TGI [22]: > 100 µM
- TGI [23]: > 100 µM
- TGI [24]: > 100 µM
- TGI [25]: > 100 µM
- TGI [26]: > 100 µM
- TGI [27]: > 100 µM
- TGI [28]: > 100 µM
- TGI [29]: > 100 µM
- TGI [30]: > 100 µM
- TGI [31]: > 100 µM
- TGI [32]: > 100 µM
- TGI [33]: 47.5 µM
- TGI [34]: > 86.2 µM
- TGI [35]: > 43.2 µM
- TGI [36]: > 100 µM
- TGI [37]: 36.1 µM
- TGI [38]: 84.1 µM
- TGI [39]: > 100 µM
- TGI [40]: > 100 µM
- TGI [41]: 98.1 µM
- TGI [42]: > 100 µM
- TGI [43]: > 38.9 µM
- TGI [44]: > 100 µM
- TGI [45]: > 81.3 µM
- TGI [46]: > 82.8 µM
- TGI [47]: 10.6 µM
- TGI [48]: > 100 µM
- TGI [49]: > 92.6 µM
- TGI [50]: > 100 µM
- TGI [51]: 55.1 µM
- TGI [52]: > 100 µM
- TGI [53]: > 100 µM
- TGI [54]: 39.3 µM
- TGI [55]: > 100 µM
- TGI [56]: 14.2 µM
- TGI [57]: > 100 µM
- TGI [58]: > 100 µM
- TGI [59]: > 100 µM
